Experimental data published in publication PMC4911353, “Pharmacologic Inhibition of Host Phosphodiesterase-4 Improves Isoniazid-Mediated Clearance of Mycobacterium tuberculosis” (Frontiers in Immunology, 2016).

Test system: Mtb-infected mouse lungs
Test: Genome-wide lung transcriptome (microarray, IPA network/GO analysis) of Mtb-infected mice
Assay type: in vivo

For CCOc1cc([C@@H](CS(C)(=O)=O)N2Cc3cccc(NC(=O)C4CC4)c3C2=O)ccc1OC [CC-11050, N-[2-[(1S)-1-(3-ethoxy-4-methoxyphenyl)-2-(methylsulfonyl)ethyl]-2,3-dihydro-3-oxo-1H-isoindol-4-yl]-(9Cl) cyclopropanecarboxamide], the TIMP1 expression (Lung inflammation network) was 0, the TLR2 expression (Lung inflammation network) was 0 and the TLR4 expression (Lung inflammation network) was 0. For the same molecule, the TNFAIP8L2 expression (Lung inflammation network) was 0, the TNFRSF1B expression (Lung inflammation network) was 0 and the TNFRSF4 expression (Lung inflammation network) was 0. It also gave a TNFRSF9 expression (Lung inflammation network) of 0, a TNFRSF25 expression (Lung inflammation network) of 0 and a TNFSF15 expression (Lung inflammation network) of 0. It also gave a TOP2A expression (Lung inflammation network) of 0, a TRAF3IP2 expression (Lung inflammation network) of 0 and a TRAF6 expression (Lung inflammation network) of 0. The TRPM2 expression (Lung inflammation network) was 0, the mir-15 expression (Lung inflammation network) was -1.286 and the mir-19 expression (Lung inflammation network) was 0. For the same molecule, the mir-25 expression (Lung inflammation network) was 0, the mir-27 expression (Lung inflammation network) was 0 and the mir-30 expression (Lung inflammation network) was 0. It also gave a mir-155 expression (Lung inflammation network) of 0, a mir-181 expression (Lung inflammation network) of 0 and an ABCC1 expression (TNF-a regulon network) of 0. The ABCC3 expression (TNF-a regulon network) was 0, the ABCD2 expression (TNF-a regulon network) was 0 and the ABCG2 expression (TNF-a regulon network) was 0. For the same molecule, the ABR expression (TNF-a regulon network) was 0, the ABTB2 expression (TNF-a regulon network) was 0 and the ACADM expression (TNF-a regulon network) was 0. For the same molecule, the ACE expression (TNF-a regulon network) was 1.167, the ACOX1 expression (TNF-a regulon network) was 0 and the ACSL1 expression (TNF-a regulon network) was 0. It also gave an ADAM8 expression (TNF-a regulon network) of 0, an ADAMTS5 expression (TNF-a regulon network) of 0 and an ADIPOQ expression (TNF-a regulon network) of 0. The ADM expression (TNF-a regulon network) was 0, the ADRB3 expression (TNF-a regulon network) was 0 and the AEBP1 expression (TNF-a regulon network) was 0. For the same molecule, the AGT expression (TNF-a regulon network) was 0, the AK2 expression (TNF-a regulon network) was 0 and the ALAD expression (TNF-a regulon network) was 0. For the same molecule, the ALDH3A1 expression (TNF-a regulon network) was 0, the ALOX5 expression (TNF-a regulon network) was 0 and the ANGPT2 expression (TNF-a regulon network) was 0. For the same molecule, the ANGPTL4 expression (TNF-a regulon network) was 1.8298, the ANXA11 expression (TNF-a regulon network) was 0 and the AOC3 expression (TNF-a regulon network) was 0. For the same molecule, the APLN expression (TNF-a regulon network) was 0, the APOBEC3B expression (TNF-a regulon network) was 0 and the APOC2 expression (TNF-a regulon network) was 0. The AQP1 expression (TNF-a regulon network) was 0, the AQP7 expression (TNF-a regulon network) was 0 and the ARF4 expression (TNF-a regulon network) was 1.158. For the same molecule, the ASGR1 expression (TNF-a regulon network) was 0, the ASS1 expression (TNF-a regulon network) was 0 and the AVPR1A expression (TNF-a regulon network) was 0. For the same molecule, the Abcb1b expression (TNF-a regulon network) was 0, the Aldh1a7 expression (TNF-a regulon network) was 0 and the B2M expression (TNF-a regulon network) was 0. It also gave a B4GALT1 expression (TNF-a regulon network) of 0, a BCKDHA expression (TNF-a regulon network) of 0 and a BCKDHB expression (TNF-a regulon network) of 0. It also gave a BCL2A1 expression (TNF-a regulon network) of 0, a BCL2L13 expression (TNF-a regulon network) of 1.114 and a BCL3 expression (TNF-a regulon network) of 0. It also gave a BGN expression (TNF-a regulon network) of 0, a BHLHE40 expression (TNF-a regulon network) of 1.386 and a BIRC2 expression (TNF-a regulon network) of 0. For the same molecule, the BIRC3 expression (TNF-a regulon network) was 0, the BIRC5 expression (TNF-a regulon network) was 0 and the BMP4 expression (TNF-a regulon network) was 0. For the same molecule, the BMPR1A expression (TNF-a regulon network) was 0, the BST2 expression (TNF-a regulon network) was 0 and the BTG1 expression (TNF-a regulon network) was 0. It also gave a BUB1B expression (TNF-a regulon network) of 0, a C3 expression (TNF-a regulon network) of 0 and a C10orf10 expression (TNF-a regulon network) of 0. The C11orf82 expression (TNF-a regulon network) was 0, the C21orf33 expression (TNF-a regulon network) was 0 and the CASP4 expression (TNF-a regulon network) was 0. The CASP6 expression (TNF-a regulon network) was 0, the CASP7 expression (TNF-a regulon network) was 0 and the CAT expression (TNF-a regulon network) was 0. For the same molecule, the CCL1 expression (TNF-a regulon network) was 0, the CCL4 expression (TNF-a regulon network) was 0 and the CCL7 expression (TNF-a regulon network) was 0.
